Tests used:
[1] = intracerebroventricular or parenteral administration; cited from earlier work
[2] = Analgesic action on oral administration (mean writhing number; method of JP 62-270555); format: in vivo; conditions: 200mg/kg

SMILES | analgesic action [1] | inhibition rate (analgesic action; (A-B) x 100/A, A: mean writhing number of control group, B: that of test substance group) [2]
O=C(O)CNC(=O)C(CS)Cc1ccccc1 (racemic) [チオルファン, ((It、L)−2−メルカプトメチル−3−フェニルプロピオニル〕グリシン] | 鎮痛作用を有する | –
CC(=O)SCC(CC1CN(Cc2ccccc2)CCO1)C(=O)Nc1ccc(S(=O)(=O)[O-])cc1.[Na+] (centres unmarked) [実施例1] | – | 61.6 χ

From patent publication JPH01254654A, “スルホン酸の誘導体及びその塩” (Dainippon Pharmaceutical Co Ltd, priority 1988, dated 1989)
